Target: human GPR40 (Homo sapiens (Human), UniProt O14842)
Test: GPR40 Calcium Flux Assay
Assay type: cell-based
Details: transfected HEK293 cells stably expressing human GPR40; Ca2+ mobilization; mean data; read-out: hGPR40 Ca^2+ Assay EC50
Protocol: Compounds were tested in a calcium flux assay using transfected HEK293 cells stably expressing either human GPR40 or rat GPR40. Human GPR40 expressing cells were cultured in DMEM-High Glucose media supplemented with 10% fetal bovine serum, 1×L-Glutamine, 1×Penicillin/Streptomycin and 500 μg/mL G418. Rat GPR40 expressing cells were cultured in DMEM-High Glucose media supplemented with 10% fetal bovine serum and 1 μg/mL puromycin. Cells were plated into poly-D-lysine coated 384-well plates and cultured overnight in a 37° C. humidified tissue culture incubator under 5% CO2/[…] atmosphere. On the day of the experiment, the culture media was replaced with assay buffer (HBSS, 20 mM HEPES, 0.1% BSA) and the cells incubated at 37° C. for 1 h. Calcium-sensitive fluorescent dye (Fluo 8 No-Wash Calcium Dye, ABD Bioquest) was then added and the cells incubated for another 30 min at 37° C. followed by 15 min at room temperature while protected from the light. The cell plate and a plate of diluted compounds of Formula (I) were loaded into a fluorescent plate reader that added compounds onto the cells while measuring the fluorescence intensity of each well. The plate reader recorded fluorescence intensity at 1 second intervals for 8 min and provided the data for analysis in an Excel format. EC50 values were calculated using Prism (GraphPad) software.

Chain of human GPR40 (O14842 whole entry): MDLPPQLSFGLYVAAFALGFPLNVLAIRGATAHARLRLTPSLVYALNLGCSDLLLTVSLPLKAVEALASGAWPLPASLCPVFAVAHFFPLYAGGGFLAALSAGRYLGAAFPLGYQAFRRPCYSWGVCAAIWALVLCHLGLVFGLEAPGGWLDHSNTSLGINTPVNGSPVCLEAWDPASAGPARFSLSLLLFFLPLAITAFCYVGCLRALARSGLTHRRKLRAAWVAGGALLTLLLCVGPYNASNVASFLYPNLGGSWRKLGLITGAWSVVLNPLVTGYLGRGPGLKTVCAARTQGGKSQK

Cc1ccccc1-c1csc2ccc(COc3ccc(CCC(=O)O)cc3)cc12 [Cpd 1, 3-[4-[[3-(2-Methylphenyl)benzo[b]thiophen-5-yl]methoxy]phenyl]propanoic acid]
EC50: 7 nM

CC#C[C@@H](CC(=O)O)c1ccc(OCc2ccc3scc(-c4ccc(OCC5(O)CCS(=O)(=O)CC5)cc4C)c3c2)cc1 [Cpd 3, (3S)-3-[4-[[3-[4-[(4-Hydroxy-1,1-dioxo-thian-4-yl)methoxy]-2-methyl-phenyl]benzo[b]thiophen-5-yl]methoxy]phenyl]hex-4-ynoic acid]
EC50: 5 nM

CC#C[C@@H](CC(=O)O)c1ccc(OCc2ccc3scc(-c4ccc(OCCCS(C)(=O)=O)cc4C)c3c2)cc1 [Cpd 4, (3S)-3-[4-[[3-[2-Methyl-4-(3-methylsulfonylpropoxy)phenyl]benzo[b]thiophen-5-yl]methoxy]phenyl]hex-4-ynoic acid]
EC50: 3 nM

CC#C[C@@H](CC(=O)O)c1ccc(OCc2ccc3scc(-c4ccc(C(=O)N5CCS(=O)(=O)CC5)cc4C)c3c2)cc1 [Cpd 5, (3S)-3-[4-[[3-[4-(1,1-Dioxo-1,4-thiazinane-4-carbonyl)-2-methyl-phenyl]benzo[b]thiophen-5-yl]methoxy]phenyl]hex-4-ynoic acid]
EC50: 23 nM

CC#C[C@@H](CC(=O)O)c1ccc(OCc2ccc3scc(-c4ccc(C5=CCS(=O)(=O)CC5)cc4C)c3c2)cc1 [Cpd 6, (3S)-3-[4-[[3-[4-(1,1-Dioxo-3,6-dihydro-2H-thiopyran-4-yl)-2-methyl-phenyl]benzo[b]thiophen-5-yl]methoxy]phenyl]hex-4-ynoic acid]
EC50: 15 nM

CC#C[C@@H](CC(=O)O)c1ccc(OCc2ccc3scc(-c4ccc(O)cc4C)c3c2)cc1 [Cpd 7, (3S)-3-[4-[[3-(4-Hydroxy-2-methyl-phenyl)benzo[b]thiophen-5-yl]methoxy]phenyl]hex-4-ynoic acid]
EC50: 7 nM

CC#C[C@@H](CC(=O)O)c1ccc(OCc2ccc3scc(-c4ccc(C5CCS(=O)(=O)CC5)cc4C)c3c2)cc1 [Cpd 8, (3S)-3-[4-[[3-[4-(1,1-Dioxothian-4-yl)-2-methyl-phenyl]benzo[b]thiophen-5-yl]methoxy]phenyl]hex-4-ynoic acid]
EC50: 20 nM

CC#C[C@@H](CC(=O)O)c1ccc(OCc2ccc3sc(C)c(-c4ccc(OC5CCS(=O)(=O)CC5)cc4C)c3c2)cc1 [Cpd 9, (3S)-3-[4-[[3-[4-(1,1-Dioxothian-4-yl)oxy-2-methyl-phenyl]-2-methyl-benzo[b]thiophen-5-yl]methoxy]phenyl]hex-4-ynoic acid]
EC50: 17 nM

CC#C[C@@H](CC(=O)O)c1ccc(OCc2ccc3scc(-c4c(C)cccc4C)c3c2)cc1 [Cpd 10, (3S)-3-[4-[[3-(2,6-Dimethylphenyl)benzo[b]thiophen-5-yl]methoxy]phenyl]hex-4-ynoic acid]
EC50: 41 nM

CC#C[C@@H](CC(=O)O)c1ccc(OCc2ccc3scc(-c4ccc(OCCC5(O)CC5)cc4C)c3c2)cc1 [Cpd 11, (3S)-3-(4-((3-(4-(2-(1-Hydroxycyclopropyl)ethoxy)-2-methylphenyl)benzo[b]thiophen-5-yl)methoxy)phenyl)hex-4-ynoic acid]
EC50: 16 nM

CC#C[C@@H](CC(=O)O)c1ccc(OCc2ccc3scc(-c4ccc(OCCC(C)(C)O)cc4C)c3c2)cc1 [Cpd 12, (3S)-3-(4-((3-(4-(3-Hydroxy-3-methylbutoxy)-2-methylphenyl)benzo[b]thiophen-5-yl)methoxy)phenyl)hex-4-ynoic acid]
EC50: 9 nM

CC#C[C@@H](CC(=O)O)c1ccc(OCc2ccc3scc(-c4ccc(OCC(O)CO)cc4C)c3c2)cc1 (stereo partly drawn) [Cpd 13, (3S)-3-(4-((3-(4-(2,3-Dihydroxypropoxy)-2-methylphenyl)benzo[b]thiophen-5-yl)methoxy)phenyl)hex-4-ynoic acid]
EC50: 7 nM

CC#C[C@@H](CC(=O)O)c1ccc(OCc2ccc3scc(-c4ccc(OCC5(C)COC5)cc4C)c3c2)cc1 [Cpd 14, (3S)-3-(4-((3-(2-Methyl-4-((3-methyloxetan-3-yl)methoxy)phenyl)benzo[b]thiophen-5-yl)methoxy)phenyl)hex-4-ynoic acid]
EC50: 9 nM

CC#C[C@@H](CC(=O)O)c1ccc(OCc2ccc3scc(-c4ccc(OC5CCOCC5)cc4C)c3c2)cc1 [Cpd 15, (3S)-3-(4-((3-(2-Methyl-4-((tetrahydro-2H-pyran-4-yl)oxy)phenyl)benzo[b]thiophen-5-yl)methoxy)phenyl)hex-4-ynoic acid]
EC50: 2 nM

CC#C[C@@H](CC(=O)O)c1ccc(OCc2ccc3scc(-c4ccc(OCC5CCS(=O)(=O)CC5)cc4C)c3c2)cc1 [Cpd 17, (3S)-3-(4-((3-(4-((1,1-Dioxidotetrahydro-2H-thiopyran-4-yl)methoxy)-2-methylphenyl)benzo[b]thiophen-5-yl)methoxy)phenyl)hex-4-ynoic acid]
EC50: 6 nM

CC#C[C@@H](CC(=O)O)c1ccc(OCc2ccc3scc(-c4ccc(OCC5(C)CS(=O)(=O)C5)cc4C)c3c2)cc1 [Cpd 18, (3S)-3-(4-((3-(2-Methyl-4-((3-methyl-1,1-dioxidothietan-3-yl)methoxy)phenyl)benzo[b]thiophen-5-yl)methoxy)phenyl)hex-4-ynoic acid]
EC50: 11 nM

CC#C[C@@H](CC(=O)O)c1ccc(OCc2ccc3scc(-c4ccccc4Cl)c3c2)cc1 [Cpd 19, (3S)-3-(4-((3-(2-Chlorophenyl)benzo[b]thiophen-5-yl)methoxy)phenyl)hex-4-ynoic acid]
EC50: 8 nM

CC#C[C@@H](CC(=O)O)c1ccc(OCc2ccc3scc(-c4ccccc4Br)c3c2)cc1 [Cpd 20, (3S)-3-(4-((3-(2-Bromophenyl)benzo[b]thiophen-5-yl)methoxy)phenyl)hex-4-ynoic acid]
EC50: 5 nM

CC#C[C@@H](CC(=O)O)c1ccc(OCc2ccc3scc(-c4ccccc4C(F)(F)F)c3c2)cc1 [Cpd 21, (3S)-3-(4-((3-(2-(Trifluoromethyl)phenyl)benzo[b]thiophen-5-yl)methoxy)phenyl)hex-4-ynoic acid]
EC50: 8 nM

CC#C[C@@H](CC(=O)O)c1ccc(OCc2ccc3scc(-c4cccnc4C)c3c2)cc1 [Cpd 22, (3S)-3-(4-((3-(2-Methylpyridin-3-yl)benzo[b]thiophen-5-yl)methoxy)phenyl)hex-4-ynoic acid]
EC50: 8 nM

CC#C[C@@H](CC(=O)O)c1ccc(COc2ccc3scc(-c4ccccc4C)c3c2)cc1 [Cpd 23, (3S)-3-(4-(((3-(2-Methylphenyl)benzo[b]thiophen-5-yl)oxy)methyl)phenyl)hex-4-ynoic acid]
EC50: 10 nM

CC#C[C@@H](CC(=O)O)c1ccc(COc2ccc3scc(-c4ccc(OCCCS(C)(=O)=O)cc4C)c3c2)cc1 [Cpd 24, (3S)-3-(4-(((3-(2-Methyl-4-(3-(methylsulfonyl)propoxy)phenyl)benzo[b]thiophen-5-yl)oxy)methyl)phenyl)hex-4-ynoic acid]
EC50: 9 nM

CC#C[C@@H](CC(=O)O)c1ccc(COc2ccc3scc(-c4ccc(C5=CCS(=O)(=O)CC5)cc4C)c3c2)cc1 [Cpd 25, (3S)-3-(4-(((3-(4-(1,1-Dioxido-3,6-dihydro-2H-thiopyran-4-yl)-2-methylphenyl)benzo[b]thiophen-5-yl)oxy)methyl)phenyl)hex-4-ynoic acid]
EC50: 24 nM

CC#C[C@@H](CC(=O)O)c1ccc(COc2ccc3scc(-c4ccc(C5CCS(=O)(=O)CC5)cc4C)c3c2)cc1 [Cpd 26, (3S)-3-(4-(((3-(4-(1,1-Dioxidotetrahydro-2H-thiopyran-4-yl)-2-methylphenyl)benzo[b]thiophen-5-yl)oxy)methyl)phenyl)hex-4-ynoic acid]
EC50: 18 nM

CC#C[C@@H](CC(=O)O)c1ccc(COc2ccc3scc(-c4c(C)cccc4C)c3c2)cc1 [Cpd 27, (3S)-3-(4-(((3-(2,6-Dimethylphenyl)benzo[b]thiophen-5-yl)oxy)methyl)phenyl)hex-4-ynoic acid]
EC50: 20 nM

Cc1cc(C2=CCS(=O)(=O)CC2)ccc1-c1csc2ccc(COc3ccc(C4(CC(=O)O)CC(=O)C4)cc3)cc12 [Cpd 28, 2-(1-(4-((3-(4-(1,1-Dioxido-3,6-dihydro-2H-thiopyran-4-yl)-2-methylphenyl)benzo[b]thiophen-5-yl)methoxy)phenyl)-3-oxocyclobutyl)acetic acid]
EC50: 12 nM

Cc1cc(C2CCS(=O)(=O)CC2)ccc1-c1csc2ccc(COc3ccc(C4(CC(=O)O)CC(=O)C4)cc3)cc12 [Cpd 29, 2-(1-(4-((3-(4-(1,1-Dioxidotetrahydro-2H-thiopyran-4-yl)-2-methylphenyl)benzo[b]thiophen-5-yl)methoxy)phenyl)-3-oxocyclobutyl)acetic acid]
EC50: 34 nM

Cc1ccccc1-c1csc2ccc(COc3ccc(C4(CC(=O)O)CC(=O)C4)cc3)cc12 [Cpd 30, 2-(3-Oxo-1-(4-((3-(2-methylphenyl)benzo[b]thiophen-5-yl)methoxy)phenyl)cyclobutyl)acetic acid]
EC50: 6 nM

Cc1ccccc1-c1csc2ccc(COc3ccc([C@]4(CC(=O)O)C[C@@H](O)C4)cc3)cc12 [Cpd 31]
EC50: 48 nM

CCOCCOc1ccc(-c2csc3ccc(COc4ccc(C5(CC(=O)O)CC(=O)C5)cc4)cc23)c(C)c1 [Cpd 32, 2-(1-(4-((3-(4-(2-Ethoxyethoxy)-2-methylphenyl)benzo[b]thiophen-5-yl)methoxy)phenyl)-3-oxocyclobutyl)acetic acid]
EC50: 36 nM
